No end group written: not given here.
Tested on: YK-EC (HLA-A2-restricted CTL cell line) with HLA-A0201-positive T2 cells
Experiment: IFN-γ production by YK-EC incubated with peptide-pulsed T2 cells (ELISA)
Format: cell-based, human
Conditions: 2×10^4 T2 cells pulsed with peptide at 10 μM over 2 hours, incubated with 1×10^5 YK-EC for 18 hours; IFN-γ in supernatant by ELISA; non peptide control 6.5
Experimental: Specifically, 10^4 of VA-13 cells were placed in each well of 96-well microplate, and incubated in RPMI 1640 medium containing 10% FCS. VA-13 cells were doubly transfected with 30 μl mixture consisting of 100 ng of the recombinant plasmid for HLA-A0201 cDNA and 100 ng of 6DI by using Lipofectin reagent (GIBCO BRL). Transfectants were prepared in duplicate. After 5-hour-incubation, 200 μl of culture medium was added to the transfectants, and the incubation continued for 72 hours. The culture medium was removed and 2×10^4 YK-EC were added, which was followed by cultivation for 18 to 24 hours. The culture medium was recovered, and the amount of IFN-γ was measured by ELISA. Specifically, an anti-humnan IFN-γ mouse monoclonal antibody was allowed to adsorb on wells of 96-well microplate to provide a solid-phased antibody. After blocking non-specific bindings with bovine serum albumin, the solid-phased antibody was allowed to bind with IFN-γ in the test sample. Anti-human IFN-γ rabbit polyclonal antibody as a detection antibody was then allowed to bind, which was followed by binding with an anti-rabbit immunoglobulin goat antibody (Amersham) labeled with alkaline phosphatase. The plate was subjected to color development reaction with peroxdase color development kit T (Sumitomo Bakelite), and measurement of absorbance at 405 nm. The absorbance was compared with that obtained with standard IFN-γ to determine the amount of IFN-γ. In the control experiments, the following three groups of cells were treated in the same manner: cells without transfection (non-treated group); cells transfected with recombinant plasmid 6DI alone; and cells transfected with solely recombinant plasmid containing HLA-A201 cDNA. To 2×10^4 T2 cells (Immunogenetics, 21:235,1985), which cell is an HLA-A0201-positive T-B hybridoma cell line but lacks the ability to present endogenous peptides, were added each of six peptides prepared in Example 3 at 10 μM over 2 hours. After incubating with 1×10^5 YK-EC for 18 hours, the amount of IFN-γ in supernatant produced by YK-EC was measured by ELISA in the same manner as described in Example 2.

Row | Sequence | Amount of INF-γ produced by YK-EC [pg/mL]
1 | AQKTPYIVL [778-786] | 105.4
2 | LLETTVQKV [650-658] | 118.1
3 | LLLCQNKGL [642-650] | 109.1
4 | LLLCQNKGLL [642-651] | 112.4
5 | RVKAPNKSL [660-668] | 71.1
6 | YVDETGRKL [712-720] | 86.1

— patent US6664232B1, “HLA-A2 restraint tumor antigen peptide originating in SART-1” (Kyogo Itoh, priority 1998, dated 2003)
